Literature values as cited in patent US20070275949A1, “Benzazepine Derivatives and Methods of Prophylaxis or Treatment of 5Ht2C Receptor Associated Diseases” (Arena Pharmaceuticals, Inc., priority 2003, published 2007).

Test system: guinea pigs
Details: in vivo, repeat administration

In the case of `C[C@H](N)Cc1cccc(C(F)(F)F)c1` [dexnorfenfluramine], the “amyloid precursor protein (APPs) secretion” value is listed as “stimulated” and the “levels of Aβ production” value is listed as “reducing”.
